Laboratory results published in patent publication US7169567B1, “Screening assay utilizing the PTH receptor” (The General Hospital Corporation, priority 1998, dated 2007).

What was measured:
[1] = molecular target: T1, truncated rat PTH-1 receptor (rΔNt) (Rattus norvegicus, UniProt P25961, E586G); assay: cAMP inhibition assay in COS-7 cells expressing rΔNt; assay type: cell-based
T1 construct: contains an open reading frame encoding a protein of about 435 amino acid residues; expressed in transfected cells; host or cells: COS-7, transient (DEAE-dextran), pCDNA-1 based plasmid
T1 sequence (P25961 with tags, fused parts or gaps E586G): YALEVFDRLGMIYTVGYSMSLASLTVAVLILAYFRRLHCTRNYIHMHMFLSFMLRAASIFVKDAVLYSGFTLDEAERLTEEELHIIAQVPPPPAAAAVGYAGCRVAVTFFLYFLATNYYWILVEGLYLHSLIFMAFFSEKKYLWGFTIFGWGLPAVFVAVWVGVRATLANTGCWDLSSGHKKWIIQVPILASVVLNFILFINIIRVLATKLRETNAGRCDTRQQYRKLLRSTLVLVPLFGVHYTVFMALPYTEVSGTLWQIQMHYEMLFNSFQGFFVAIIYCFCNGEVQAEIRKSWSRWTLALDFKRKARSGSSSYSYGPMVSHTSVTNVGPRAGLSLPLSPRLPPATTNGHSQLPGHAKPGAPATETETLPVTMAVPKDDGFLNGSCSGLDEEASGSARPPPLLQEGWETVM
Description: (§1) FIG. 7. Antagonist Properties of PTHrP(7–34) with PTH(1–14). COS-7 cells transfected with rWT-HA (A) or rΔNt (B) were treated with the antagonist [Leu11,D-Trp12]hPTHrP(7–34)NH2 (or buffer alone), for 5 min at 22EC, followed by 10 ml of either rPTH(1–34) or rPTH(1–14) agonist peptide. Incubations were continued for 30 min at 21° C. and the resulting cAMP levels were measured by RIA, as described in Experimental Procedures. The final concentration of antagonist peptide present during the incubation was 10 mM. Shown are data from a single experiment performed in triplicate. A repeat of the same experiment yielded equivalent results.
(§2) For cAMP inhibition assays, transfected COS-7 cells were rinsed once with 500 ml of binding buffer, and 200 ml of IBMX buffer and 100 ml of binding buffer or binding buffer containing the antagonist [Leu11,D-Trp12]hPTHrP(7–34) NH2 (10 mM) were added. After a 5 minute incubation at room temperature, 10 ml of binding buffer containing PTH(1–14) or PTH(1–34) (agonist peptide) was added, and the incubation was continued for an additional 30 minutes. The cells were then lysed and intracellular cAMP levels were measured as described above.
In order to determine whether [Leu11,D-Trp12]hPTHrP(7–34)NH2, a potent competitive antagonist of PTH(1–34) action (Nutt, R. F., et al., Endocrinology 127:491–493 (1990)), could block the ability of PTH(1–14) to stimulate cAMP formation in COS-7 cells expressing either rWT-HA or rΔNt (FIG. 6). With rWT-HA the inhibitor peptide reduced the efficacy of both PTH(1–14) and PTH(1–34) by as much as 70% as compared to the responses elicited by these agonists in the absence of inhibitor (FIG. 6A).

[2] = molecular target: T2, intact rat PTH-1 receptor (rWT-HA) (Rattus norvegicus, UniProt P25961); assay: cAMP inhibition assay in COS-7 cells expressing rWT-HA; assay type: cell-based; conditions: antagonist 10 mM
T2 construct: expressed in transfected cells; host or cells: COS-7, transient (DEAE-dextran), pCDNA-1 based plasmid
T2 sequence (P25961 23-591 E93Y/N94P/K95Y/T99D/G100Y/S101A limits assumed): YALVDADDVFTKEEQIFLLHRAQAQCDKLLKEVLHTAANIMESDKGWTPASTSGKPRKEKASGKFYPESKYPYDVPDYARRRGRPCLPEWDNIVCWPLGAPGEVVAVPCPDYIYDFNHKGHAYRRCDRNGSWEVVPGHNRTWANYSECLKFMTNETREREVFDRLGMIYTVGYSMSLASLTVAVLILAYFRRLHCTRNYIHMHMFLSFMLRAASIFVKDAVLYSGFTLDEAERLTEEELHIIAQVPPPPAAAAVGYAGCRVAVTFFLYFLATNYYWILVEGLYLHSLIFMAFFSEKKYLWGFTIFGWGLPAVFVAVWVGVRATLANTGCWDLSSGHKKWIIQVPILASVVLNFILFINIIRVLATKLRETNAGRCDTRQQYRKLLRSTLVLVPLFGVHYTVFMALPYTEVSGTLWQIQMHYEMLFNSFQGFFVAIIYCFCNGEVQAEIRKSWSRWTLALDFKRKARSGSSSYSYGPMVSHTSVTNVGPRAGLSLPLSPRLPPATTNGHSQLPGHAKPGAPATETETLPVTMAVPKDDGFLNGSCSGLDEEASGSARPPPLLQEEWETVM
Description: as §1
as §2, with “above. […]” for “above.”

[3] = cells expressing rΔNt, antagonist 10 mM

[Leu^11,D-Trp^12]hPTHrP(7–34)NH2 [[Leu11,D-Trp12]hPTHrP(7–34)NH2]
effect on the ability of PTH(1–14) to stimulate cAMP production [1, 3]: little or no effect
effect on the ability of PTH(1–34) to stimulate cAMP production [1, 3]: little or no effect
function as an antagonist with rΔNt ([1]; rΔNt): inability
reduction of efficacy of PTH(1–14) (cAMP) compared to response in absence of inhibitor ([2]; agonist PTH(1–14)): ≤ 70%
reduction of efficacy of PTH(1–34) (cAMP) compared to response in absence of inhibitor ([2]; agonist PTH(1–34)): ≤ 70%
